{
  "source": "patent US11084976B2",
  "about": "“Method and process of use of binary compositions for acidizing subterranean formations” (Halliburton Energy Services, Inc., priority 2018, dated 2021)",
  "key": {"[1]": {"experiment": "PMIDA added to base solubility test", "type": "physicochemical", "conditions": "base added to PMIDA in solid form or high concentrated slurry", "protocol": "During the testing, however, it was observed that adding the base to the PMIDA in its solid form, or in a high concentrated slurry, was unsuccessful.\nThe following procedure was followed to generate several samples. First, a quantity of a known base in water was prepared. Next, PMIDA was added to the solution at a rate slow enough to ensure that no boiling of the fluid occurred. As discussed above, it is believed that the addition of the PMIDA to the base may result in an exothermic reaction that may aid in additional solubilizing of PMIDA due to the increase in the fluid temperature. After complete addition and thorough mixing, the fluid was cooled, and the volume, weight, and pH were measured. Finally, the concentration and density of the samples were determined."}, "[2]": {"experiment": "Solubility of PMIDA in water and HCl (saturation concentrations)", "type": "physicochemical", "conditions": "for solubility thermodynamic: water, thermodynamic from solid, H2O", "description": "In certain embodiments, the organic compound comprising a phosphonoalkyl moiety is at least partially solubilized in the organic or mineral acid. As used herein, the term “at least partially solubilized,” and grammatical variants thereof, with reference to the organic compound comprising a phosphonoalkyl moiety in the organic or mineral acid refers to dissolution of at least about 2% weight per volume (w/v) of the organic compound comprising a phosphonoalkyl moiety in the organic or mineral acid at room temperature. As used herein, the term “room temperature” refers to about 15° C. to about 25° C. The remaining excess organic compound comprising a phosphonoalkyl moiety may be suspended in the organic or mineral acid while it is undergoing dynamic fluid flow at room temperature. As temperatures increase (e.g., as the treatment fluid is introduced into a subterranean formation and encounters downhole temperatures), the solubility of the organic compound comprising a phosphonoalkyl moiety in the organic or mineral acid may increase. Indeed, the solubility of the organic compound comprising a phosphonoalkyl moiety increases as a function of acid concentration, and temperature."}},
  "data": [
    {"smiles": "O=C(O)CN(CC(=O)O)CP(=O)(O)O", "note": "[PMIDA, N-(phosphonomethyl)iminodiacetic acid]", "values": [
      {"measurement": "Solubility in the base mixture", "setting": "[1]", "value": "substantially insoluble"},
      {"measurement": "Solubility Average", "setting": "[2]; Atm., 7.5% HCl, 200° F.", "value": 10.00, "unit": "w/v %"},
      {"measurement": "solubility thermodynamic", "setting": "[2]; 37.8 °C, 200 psi, 100° F.", "value": 18.3, "unit": "mg/mL"},
      {"measurement": "solubility thermodynamic", "setting": "[2]; 37.8 °C, Atm., 100° F.", "value": 22.6, "unit": "mg/mL"},
      {"measurement": "solubility thermodynamic", "setting": "[2]; 65.6 °C, 200 psi, 150° F.", "value": 28.7, "unit": "mg/mL"},
      {"measurement": "solubility thermodynamic", "setting": "[2]; 65.6 °C, Atm., 150° F.", "value": 31.9, "unit": "mg/mL"},
      {"measurement": "solubility thermodynamic", "setting": "[2]; 93.3 °C, 200 psi, 200° F.", "value": 51.1, "unit": "mg/mL"},
      {"measurement": "solubility thermodynamic", "setting": "[2]; 93.3 °C, Atm., 200° F.", "value": 47.9, "unit": "mg/mL"}
    ]}
  ]
}
